# “And” between values parts separate entries of the source, which are not always exact repeats. Identical values can stand only once. Like-named read-outs stand apart in the source and are kept apart here.
# How the values were obtained:
# [1] = system: S. aureus 15819; test: Antibiotic MIC by microdilution with or without sub-MIC polymer; type: cell-based, Staphylococcus aureus; conditions: S. aureus 15819
# [2] = system: S. maltophila 748; test: as above; type: cell-based, Stenotrophomonas maltophila
# [3] = system: E. coli K-12 resistant wild type; type: cell-based, Escherichia coli; conditions: E. coli AG100 (w.t.)
# [4] = system: E. coli 16327; test: microbe, parasite or virus in culture
# [5] = system: E. coli 14182; test: Antibiotic MIC by microdilution with or without sub-MIC polymer; type: cell-based, Escherichia coli
# [6] = system: E. coli K-12 efflux knockout mutant; type: cell-based, Escherichia coli; conditions: E. coli AG100A (efflux−)
# Experimental: MICs were determined by microdilution susceptibility testing in 96-well plates (by Nunc) using inocula of 10^5 bacteria per ml. Cell populations were evaluated by optical density measurements at 620 nm and were calibrated against a set of standards. Hundred (100) μl of a bacterial suspension were added to 100 μl of culture medium (control) or to 100 μl of culture medium containing various polymer concentrations in 2-fold serial dilutions. Inhibition of proliferation was determined by optical density measurements at 620 nm after an incubation period of 24 hours at 37° C.
# [7] = +½ MIC (3.12 μM) C12K(KNC12K)3NH2
# [8] = +⅓ MIC (2.1 μM) C12K(KNC12K)3NH2
# [9] = polymer at ½ of its MIC (Table 16)
# [10] = the OAK at ¼ of its MIC (Table 17)
# [11] = the OAK at ½ of its MIC (Table 17)
smiles,measurement,setting,value
"Cc1onc(-c2ccccc2)c1C(=O)N[C@@H]1C(=O)N2[C@@H]1SC(C)(C)[C@@H]2C(=O)O [Oxacillin, oxacillin]",Antibiotic MIC,[1]; +½ MIC (3.12 μM) C12(5-ene)KKNC12KNH2,1 µg/mL
same,Antibiotic MIC,[1]; [7],0.5 to 1 µg/mL
same,Antibiotic MIC,[1]; +½ MIC (3.12 μM) C12KKNC12KNH2,2 µg/mL
same,Antibiotic MIC,[1]; +⅓ MIC (2.1 μM) C12(5-ene)KKNC12KNH2,2 µg/mL
same,Antibiotic MIC,[1]; [8],2 µg/mL
same,Antibiotic MIC,[1]; +⅓ MIC (2.1 μM) C12KKNC12KNH2,8 µg/mL
same,Antibiotic MIC,"[1]; no polymer (None), Table 8",4 µg/mL
same,Antibiotic MIC,"[1]; no polymer (None), Table 11",8 µg/mL
same,Antibiotic MIC,"[1]; no polymer (None), Table 13",8 µg/mL
same,Antibiotic MIC,[2]; +¼ MIC (1.6 μM) C12K(KNC12K)3NH2,512 µg/mL
same,Antibiotic MIC,[2]; [7],256 µg/mL
same,Antibiotic MIC,[2]; [8],512 µg/mL
same,Antibiotic MIC,"[2]; no polymer (None), Table 13",512 µg/mL
same,"Antibiotic MIC, None",[3]; antibiotic alone (Table 16),512 µg/mL
same,"Antibiotic MIC, None",[3]; antibiotic alone (Table 17),512 µg/mL
same,"Antibiotic MIC in presence of C12K(NC8K)7NH2 (SEQ ID NO: 4), +½ MIC",[3]; [9],32 to 64 µg/mL
same,"Antibiotic MIC in presence of the OAK, +¼ MIC",[3]; [10],256 µg/mL
same,"Antibiotic MIC in presence of the OAK, +½ MIC",[3]; [11],32 to 64 µg/mL
same,Antibiotic MIC,[4],512 µg/mL and >512 µg/mL
same,Antibiotic MIC,"[4]; E. coli 16327, +¼ MIC (1.6 μM) C12K(KNC12K)2NH2",>512 µg/mL
same,Antibiotic MIC,"[4]; E. coli 16327, +½ MIC (3.12 μM) C12K(KNC12K)2NH2",512 µg/mL
same,Antibiotic MIC,"[4]; E. coli 16327, +⅓ MIC (2.1 μM) C12K(KNC12K)2NH2",>512 µg/mL
same,Antibiotic MIC,"[4]; E. coli 16327, no polymer (None), Table 9",>512 µg/mL
same,Antibiotic MIC,"[4]; E. coli 16327, no polymer (None), Table 10",>512 µg/mL
same,Antibiotic MIC,"[4]; E. coli 16327, no polymer (None), Table 12",>512 µg/mL
same,"MIC, ¼ + MIC OAK","[4]; E. coli U16327, with C12K(KNC10K)3NH2 (SEQ ID NO: 10) at ¼ of its MIC",>512 µg/mL
same,"MIC, ⅓ + MIC OAK","[4]; E. coli U16327, with C12K(KNC10K)3NH2 (SEQ ID NO: 10) at ⅓ of its MIC",>512 µg/mL
same,"Antibiotic MIC, None","[4]; E. coli U-16327, antibiotic alone (Table 15)",>512 µg/mL
same,"Antibiotic MIC in presence of C12K(NC8K)7NH2 (SEQ ID NO: 4), +¼ MIC","[4]; E. coli U-16327, polymer at ¼ of its MIC",>512 µg/mL
same,"Antibiotic MIC in presence of C12K(NC8K)7NH2 (SEQ ID NO: 4), +½ MIC","[4]; E. coli U-16327, polymer at ½ of its MIC",512 µg/mL
same,"Antibiotic MIC in presence of C12K(NC8K)7NH2 (SEQ ID NO: 4), +⅓ MIC","[4]; E. coli U-16327, polymer at ⅓ of its MIC",>512 µg/mL
same,MIC,"[4]; Escherichia coli, 16327, read-out: MIC, Alone",> 512 µg/mL
same,Antibiotic MIC,[5]; +½ MIC C12K(NC8K)5NH2,>512 µg/mL
same,"Antibiotic MIC, None",[5]; antibiotic alone (Table 15),>512 µg/mL
same,Antibiotic MIC,"[5]; no polymer (None), Table 14",>512 µg/mL
same,"Antibiotic MIC in presence of C12K(NC8K)7NH2 (SEQ ID NO: 4), +¼ MIC",[5]; polymer at ¼ of its MIC,>512 µg/mL
same,"Antibiotic MIC in presence of C12K(NC8K)7NH2 (SEQ ID NO: 4), +½ MIC",[5]; polymer at ½ of its MIC,>512 µg/mL
same,"Antibiotic MIC in presence of C12K(NC8K)7NH2 (SEQ ID NO: 4), +⅓ MIC",[5]; polymer at ⅓ of its MIC,>512 µg/mL
same,"Antibiotic MIC, None",[6]; antibiotic alone (Table 16),0.5 to 1 µg/mL
same,"Antibiotic MIC, None",[6]; antibiotic alone (Table 17),0.5 to 1 µg/mL
same,"Antibiotic MIC in presence of C12K(NC8K)7NH2 (SEQ ID NO: 4), +¼ MIC",[6]; polymer at ¼ of its MIC (Table 16),0.5 to 1 µg/mL
same,"Antibiotic MIC in presence of C12K(NC8K)7NH2 (SEQ ID NO: 4), +½ MIC",[6]; [9],0.25 µg/mL
same,"Antibiotic MIC in presence of C12K(NC8K)7NH2 (SEQ ID NO: 4), +⅓ MIC",[6]; polymer at ⅓ of its MIC (Table 16),0.25 µg/mL
same,"Antibiotic MIC in presence of the OAK, +¼ MIC",[6]; [10],0.5 µg/mL
same,"Antibiotic MIC in presence of the OAK, +½ MIC",[6]; [11],0.25 µg/mL
same,"Antibiotic MIC in presence of the OAK, +⅓ MIC",[6]; the OAK at ⅓ of its MIC (Table 17),0.5 µg/mL

# Source: patent publication US20180153995A1, “USE OF ANTIMICROBIAL POLYMERS FOR RE-SENSITIZATION OF MICROORGANISMS UPON EMERGENCE OF RESISTANCE TO ANTI-MICROBIAL AGENTS” (Technion Research & Development Foundation Limited, priority 2008, published 2018)
